According to patent US20050112573A1, “Method of detecting toxic substance” (priority 2001, published 2005):

System: yeast genes (level of expressed mRNA)
Assay: DNA chip analysis of expressed mRNA of yeast genes after 2 h culture with a toxic chemical substance
Format: cell-based, Saccharomyces cerevisiae S288C
Conditions: for The level of expressed mRNA in the presence of chemical substance/ (ratio to absence): transport facilitation protein gene; for The level of expressed mRNA in the presence of chemical substance/: ratio to no chemical; for The level of expressed mRNA in the presence of chemical substance/ (ratio to absence of chemical substance): stress protein genes, DNA chip
In short: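 S. cerevisiae S288C in YPD at 25 °C was exposed at log phase for 2 h to a growth-inhibiting, non-lethal concentration of the chemical. Poly(A) mRNA was reverse-transcribed with Cy3- or Cy5-dUTP and hybridized to a whole-genome yeast DNA chip (65 °C, >12 h). Values are fluorescence ratios versus untreated cells.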

sodium dodecylbenzosulfonate [(17)]
1.5: The level of expressed mRNA in the presence of chemical substance/ (yeast gene YDR531W) | The level of expressed mRNA in the presence of chemical substance/ (yeast gene YEL041W) | The level of expressed mRNA in the presence of chemical substance/in the absence of chemical substance (yeast gene YFL014W) | The level of expressed mRNA in the presence of chemical substance/The level of expressed mRNA in the absence of chemical substance (yeast gene YFL043C) | The level of expressed mRNA in the presence of chemical substance/in the absence of chemical substance (yeast gene YFR047C) | The level of expressed mRNA in the presence of chemical substance/ (yeast gene YGL046W) | The level of expressed mRNA in the presence of chemical substance/ (yeast gene YGR053C)
3.2: The level of expressed mRNA in the presence of chemical substance/in the absence of chemical substance (yeast gene YGR032W)
1.2: The level of expressed mRNA in the presence of chemical substance/The level of expressed mRNA in the absence of chemical substance (yeast gene YDR315C) | The level of expressed mRNA in the presence of chemical substance/ (ratio to absence), gene YDR377W (yeast gene YDR377W, mitochondria-located protein genes, 2 h culture with chemical) | The level of expressed mRNA in the presence of chemical substance/ (in its absence), gene YDR387C (yeast gene YDR387C, ratio of DNA chip fluorescence intensity to that without chemical substance) | The level of expressed mRNA in the presence of chemical substance/The level of expressed mRNA in the absence of chemical substance (yeast gene YDR388W) | The level of expressed mRNA in the presence of chemical substance/The level of expressed mRNA in the absence of chemical substance (yeast gene YDR481C) | The level of expressed mRNA in the presence of chemical substance/in the absence of chemical substance (yeast gene YER053C) | The level of expressed mRNA in the presence of chemical substance/ (ratio to absence) (yeast gene YER053C) | The level of expressed mRNA in the presence of chemical substance/in the absence of chemical substance (yeast gene YER091C) | The level of expressed mRNA in the presence of chemical substance/The level of expressed mRNA in the absence of chemical substance (yeast gene YFL028C) | The level of expressed mRNA in the presence of chemical substance/in the absence of chemical substance (yeast gene YFL031W) | The level of expressed mRNA in the presence of chemical substance/in the absence of chemical substance (yeast gene YFL061W) | The level of expressed mRNA in the presence of chemical substance/ (yeast gene YFR046C) | The level of expressed mRNA in the presence of chemical substance/ (yeast gene YGL250W)
0.7: The level of expressed mRNA in the presence of chemical substance/The level of expressed mRNA in the absence of chemical substance (yeast gene YDR432W) | The level of expressed mRNA in the presence of chemical substance/ (ratio to absence of chemical substance) (yeast gene YEL039C) | The level of expressed mRNA in the presence of chemical substance/The level of expressed mRNA in the absence of chemical substance (yeast gene YEL042W) | The level of expressed mRNA in the presence of chemical substance/ (ratio to absence) (yeast gene YEL065W) | The level of expressed mRNA in the presence of chemical substance/ (yeast gene YER181C) | The level of expressed mRNA in the presence of chemical substance/ (ratio to absence) (yeast gene YGR055W) | The level of expressed mRNA in the presence of chemical substance/ (ratio to absence) (yeast gene YGR065C)
0.9: The level of expressed mRNA in the presence of chemical substance/ (yeast gene YER124C) | The level of expressed mRNA in the presence of chemical substance/ (yeast gene YFR017C) | The level of expressed mRNA in the presence of chemical substance/ (ratio to absence) (yeast gene YFR045W) | The level of expressed mRNA in the presence of chemical substance/ (in its absence), gene YGL035C (yeast gene YGL035C, ratio of DNA chip fluorescence intensity to that without chemical substance) | The level of expressed mRNA in the presence of chemical substance/ (yeast gene YGL067W) | The level of expressed mRNA in the presence of chemical substance/ (yeast gene YGL114W) | The level of expressed mRNA in the presence of chemical substance/ (ratio to absence), gene YGL187C (yeast gene YGL187C, mitochondria-located protein genes, 2 h culture with chemical) | The level of expressed mRNA in the presence of chemical substance/ (yeast gene YGL204C) | The level of expressed mRNA in the presence of chemical substance/ (yeast gene YGL259W) | The level of expressed mRNA in the presence of chemical substance/ (yeast gene YGR011W) | The level of expressed mRNA in the presence of chemical substance/ in its absence, gene YGR062C (yeast gene YGR062C, energy system protein genes, 2 h culture with the chemical, ratio to control without chemical) | The level of expressed mRNA in the presence of chemical substance/ (ratio to absence), gene YGR062C (yeast gene YGR062C, mitochondria-located protein genes, 2 h culture with chemical)
1.8: The level of expressed mRNA in the presence of chemical substance/in the absence of chemical substance (yeast gene YGL157W)
2.1: The level of expressed mRNA in the presence of chemical substance/ (yeast gene YGL117W)
1.7: The level of expressed mRNA in the presence of chemical substance/The level of expressed mRNA in the absence of chemical substance (yeast gene YER039C) | The level of expressed mRNA in the presence of chemical substance/ (ratio to absence) (yeast gene YFL054C) | The level of expressed mRNA in the presence of chemical substance/ (yeast gene YFR042W)
1.6: The level of expressed mRNA in the presence of chemical substance/in the absence of chemical substance (yeast gene YDR497C) | The level of expressed mRNA in the presence of chemical substance/ (ratio to absence) (yeast gene YDR497C) | The level of expressed mRNA in the presence of chemical substance/ (in its absence), gene YER015W (yeast gene YER015W, ratio of DNA chip fluorescence intensity to that without chemical substance) | The level of expressed mRNA in the presence of chemical substance/in the absence of chemical substance (yeast gene YFL057C) | The level of expressed mRNA in the presence of chemical substance/in the absence of chemical substance (yeast gene YGR043C)
3.9: The level of expressed mRNA in the presence of chemical substance/ (in its absence), gene YGL205W (yeast gene YGL205W, ratio of DNA chip fluorescence intensity to that without chemical substance)
3.0: The level of expressed mRNA in the presence of chemical substance/The level of expressed mRNA in the absence of chemical substance (yeast gene YER130C)
1.0: The level of expressed mRNA in the presence of chemical substance/ (ratio to absence) (yeast gene YDR342C) | The level of expressed mRNA in the presence of chemical substance/ (yeast gene YDR374C) | The level of expressed mRNA in the presence of chemical substance/ (ratio to absence) (yeast gene YEL027W) | The level of expressed mRNA in the presence of chemical substance/The level of expressed mRNA in the absence of chemical substance (yeast gene YEL066W) | The level of expressed mRNA in the presence of chemical substance/in the absence of chemical substance (yeast gene YER096W) | The level of expressed mRNA in the presence of chemical substance/ (ratio to absence) (yeast gene YER119C) | The level of expressed mRNA in the presence of chemical substance/in the absence of chemical substance (yeast gene YFL030W) | The level of expressed mRNA in the presence of chemical substance/in the absence of chemical substance (yeast gene YFL056C) | The level of expressed mRNA in the presence of chemical substance/ (yeast gene YGL146C) | The level of expressed mRNA in the presence of chemical substance/in the absence of chemical substance (yeast gene YGL184C) | The level of expressed mRNA in the presence of chemical substance/ (yeast gene YGR066C)
0.8: The level of expressed mRNA in the presence of chemical substance/ (yeast gene YEL072W) | The level of expressed mRNA in the presence of chemical substance/ (in its absence), gene YGL115W (yeast gene YGL115W, ratio of DNA chip fluorescence intensity to that without chemical substance) | The level of expressed mRNA in the presence of chemical substance/ (ratio to absence of chemical substance) (yeast gene YGL115W) | The level of expressed mRNA in the presence of chemical substance/The level of expressed mRNA in the absence of chemical substance (yeast gene YGL158W) | The level of expressed mRNA in the presence of chemical substance/ (in its absence), gene YGR096W (yeast gene YGR096W, ratio of DNA chip fluorescence intensity to that without chemical substance)
1.4: The level of expressed mRNA in the presence of chemical substance/ (yeast gene YDR350C) | The level of expressed mRNA in the presence of chemical substance/ (ratio to absence) (yeast gene YFL055W) | The level of expressed mRNA in the presence of chemical substance/in the absence of chemical substance (yeast gene YFR053C) | The level of expressed mRNA in the presence of chemical substance/in the absence of chemical substance (yeast gene YGL156W) | The level of expressed mRNA in the presence of chemical substance/ (ratio to absence) (yeast gene YGL167C)
1.1: The level of expressed mRNA in the presence of chemical substance/in the absence of chemical substance (yeast gene YDR313C) | The level of expressed mRNA in the presence of chemical substance/ (ratio to absence) (yeast gene YDR343C) | The level of expressed mRNA in the presence of chemical substance/in the absence of chemical substance (yeast gene YDR368W) | The level of expressed mRNA in the presence of chemical substance/ (yeast gene YDR494W) | The level of expressed mRNA in the presence of chemical substance/The level of expressed mRNA in the absence of chemical substance (yeast gene YDR510W) | The level of expressed mRNA in the presence of chemical substance/in the absence of chemical substance (yeast gene YDR516C) | The level of expressed mRNA in the presence of chemical substance/ (yeast gene YER045C) | The level of expressed mRNA in the presence of chemical substance/ (ratio to absence of chemical substance) (yeast gene YER057C) | The level of expressed mRNA in the presence of chemical substance/The level of expressed mRNA in the absence of chemical substance (yeast gene YER107C) | The level of expressed mRNA in the presence of chemical substance/in the absence of chemical substance (yeast gene YER178W) | The level of expressed mRNA in the presence of chemical substance/ (ratio to absence) (yeast gene YFL041W) | The level of expressed mRNA in the presence of chemical substance/ (ratio to absence) (yeast gene YGL008C) | The level of expressed mRNA in the presence of chemical substance/in the absence of chemical substance (yeast gene YGL062W) | The level of expressed mRNA in the presence of chemical substance/ (yeast gene YGL098W) | The level of expressed mRNA in the presence of chemical substance/ (yeast gene YGL193C) | The level of expressed mRNA in the presence of chemical substance/The level of expressed mRNA in the absence of chemical substance (yeast gene YGL229C)
1.9: The level of expressed mRNA in the presence of chemical substance/The level of expressed mRNA in the absence of chemical substance (yeast gene YDR358W)
0.6: The level of expressed mRNA in the presence of chemical substance/ (ratio to absence) (yeast gene YGL255W)
1.3: The level of expressed mRNA in the presence of chemical substance/ (yeast gene YDR512C) | The level of expressed mRNA in the presence of chemical substance/ (ratio to absence) (yeast gene YGL104C) | The level of expressed mRNA in the presence of chemical substance/ (yeast gene YGR042W)
